Data published in PubChem BioAssay AID2060895 (Molecular Pharmacology Branch, DTP, NCI, 2025).

Tested on: PDC 899932-113-R3-J6 complex spheroid viability
Test: Anticancer human tumor 899932-113-R3-J6-PDC patient-derived melanoma cell line growth inhibition [RAS]
Conditions: for IC50: curve of first compound; for viability, T/C: stronger effect = lower value
Description: RAS pathway inhibitors in Combinations in Complex Spheroids
A high-throughput screen of multi-cell type tumor spheroids was designed to identify active combinations of RAS pathway inhibitors and targeted small molecules. Complex spheroids include a stromal component modeled by human endothelial cells (HUVEC) and fibroblasts modeled by human mesenchymal stem cells (MSCs). The concentration ranges selected for each drug and investigational agent were based upon clinically achievable concentrations if the clinical Cmax of the agent was known.
Compounds. The drugs and investigational agents: abemaciclib (NSC768073), cobimetinib (NSC768068), divarasib (GDC6063, NSC841802), docetaxel (NSC628503), GDC-1971 (RLY-1971, NSC841576), gemcitabine (NSC613327), inavolisib (NSC800729), ipatasertib (NSC767898), KB-0742 (NSC834161), MRTX-1133 (NSC836407), osimertinib (NSC779217), RMC-4630 (NSC839698), RMC-6236 (NSC851965), RMC-6291 (NSC852671), Ro-3306 (NSC812927), sapanisertib (NSC764658), SN-38 (NSC673596), staurosporine (NSC755774), SY5609 (NSC837396), and tovorafenib (DAY101, NSC766906), were obtained from the National Cancer Institute (NCI) Developmental Therapeutics Program Chemical Repository. The FDA-approved anticancer drug set is available from the NCI Developmental Therapeutics Program. […] The stock solutions were prepared in dimethyl sulfoxide (DMSO, Sigma-Aldrich, St. Louis, MO, cat. D2650) at 800-fold the tested concentration and stored at -70 degrees C prior to their use. All drugs and investigational agents were tested over a range starting from a high concentration at or near the clinical Cmax and decreasing in half-log increments. If the clinical Cmax for an agent had not been determined, the highest concentration tested was 10 microM.
Cell Culture. All cells were maintained in an incubator at 37 degrees C and 5% CO2 with 95% humidity. The PDC lines were cultured according to standard operating procedures established by the NCI PDMR. All PDCs were thawed and cultured in Matrigel-coated flasks prepared with a working solution of 1X Ham's F-12 nutrient mix, without supplementation (Invitrogen, Waltham, MA, cat. 11765054), 100 U/mL penicillin-streptomycin (Invitrogen, cat. 15140122), and 2.5% Matrigel (Corning Inc., Corning, NY, cat. 354248) for the first three passages. The 362531-283-R-J2-PDC and 782815-120-R-J1-PDC lines were cultured in 6C/Colon 1B media, which includes advanced DMEM/F-12 (Thermo Fisher Scientific, cat. 12634028), 10 mM HEPES (Thermo Fisher Scientific, cat. 15630080), 1X GlutaMAX supplement (Thermo Fisher Scientific, cat. 35050061), 0.1 mg/mL primocin (InvivoGen, San Diego, CA, cat. ant-pm-2), 10% defined fetal bovine serum, heat inactivated (HyClone Laboratories Inc., Logan, UT, cat. SH30070.03HI), 50% L-WRN conditioned media (ATCC, cat. CRL-3276), 1.25 mM N-Acetyl-L-cysteine (Sigma-Aldrich, cat. A9165), 10 mM nicotinamide (Sigma-Aldrich, cat. N0636), 1X B-27 supplement (Thermo Fisher Scientific, cat. 17504044), 1X N-2 supplement (Thermo Fisher Scientific, cat. 17502048), 50 ng/mL human EGF (Thermo Fisher Scientific, cat. PHG0311), and 10 microM Y-27632 dihydrochloride (Tocris Bioscience, cat. 1254). The K12877-001-R-J1-PDC line was cultured in 6I media, which includes all 6C/Colon 1B media plus 10 ng/mL human FGF-10 (PeproTech, cat. 100-26), 1 ng/mL human FGF-2 (PeproTech, cat. 100-18B), 1 µM prostaglandin E2 (Tocris Bioscience, cat. 2296), […] hydrocortisone (Sigma-Aldrich, cat. H4001), and […] bovine insulin (Sigma-Aldrich, cat. I6634). The K86415-001-R-J1-PDC line was cultured in 6D media, which includes all 6C/Colon 1B media components minus the L-WRN conditioned media. The 485176-168-R4-J1-PDC was cultured in PANC media, which includes all 6C/Colon 1B media plus 100 ng/mL human FGF-10 (PeproTech, cat. 100-26), 500 nM SB-431542 (Selleckchem, cat. S1067), and 10 nM gastrin (Tocris Bioscience, cat. 3006). […]
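Throughout, for viability, T/C: spheroids exposed to agents for seven days before readout; 100% = DMSO vehicle control wells.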

Q: With `CCc1c2c(nc3ccc(O)cc13)-c1cc3c(c(=O)n1C2)COC(=O)[C@]3(O)CC` + CCn1c(-c2cccnc2C(C)OC)c2c3cc(ccc31)N1CCOC(CC(NC(=O)C(C(C)C)N(C)C(=O)C3(F)CCN(C(=O)C#CC(C)(C)N(C)C)CC3)C(=O)N3CCCC(N3)C(=O)OCC(C)(C)C2)C1 as the compound, how does the IC50 (second compound 0.000949 µM) read?
A: 19.5 nM

Q: And the IC50 (second compound 0.003 µM)?
A: 19.9 nM

Q: What about the IC50 (second compound 0.00949 µM) of the same compound?
A: 33.6 nM

Q: And the IC50 (second compound 0.03 µM)?
A: 33.6 nM

Q: What about the IC50 (second compound 0.0949 µM) of the same compound?
A: 15.7 nM

Q: And the IC50 (second compound 0.3 µM)?
A: 17.2 nM

Q: What about the viability, T/C (second compound 0.000949 µM, first compound 0.000949 µM) of the same compound?
A: 93.4%

Q: What about the viability, T/C (second compound 0.000949 µM, first compound 0.003 µM) of the same compound?
A: 72%

Q: And the viability, T/C (second compound 0.000949 µM, first compound 0.00949 µM)?
A: 56.4%

Q: And the viability, T/C (second compound 0.000949 µM, first compound 0.03 µM)?
A: 46.1%

Q: What about the viability, T/C (second compound 0.000949 µM, first compound 0.0949 µM) of the same compound?
A: 39.9%

Q: And the viability, T/C (second compound 0.000949 µM, first compound 0.3 µM)?
A: 32.3%

Q: What about the viability, T/C (second compound 0.003 µM, first compound 0.000949 µM) of the same compound?
A: 95.3%

Q: And the viability, T/C (second compound 0.003 µM, first compound 0.003 µM)?
A: 69.1%

Q: What about the viability, T/C (second compound 0.003 µM, first compound 0.00949 µM) of the same compound?
A: 57.8%

Q: What about the viability, T/C (second compound 0.003 µM, first compound 0.03 µM) of the same compound?
A: 46.7%

Q: And the viability, T/C (second compound 0.003 µM, first compound 0.0949 µM)?
A: 42.2%

Q: What about the viability, T/C (second compound 0.003 µM, first compound 0.3 µM) of the same compound?
A: 31.1%

Q: And the viability, T/C (second compound 0.00949 µM, first compound 0.000949 µM)?
A: 93.8%

Q: And the viability, T/C (second compound 0.00949 µM, first compound 0.003 µM)?
A: 78.3%

Q: And the viability, T/C (second compound 0.00949 µM, first compound 0.00949 µM)?
A: 61.4%

Q: What about the viability, T/C (second compound 0.00949 µM, first compound 0.03 µM) of the same compound?
A: 53.6%

Q: What about the viability, T/C (second compound 0.00949 µM, first compound 0.0949 µM) of the same compound?
A: 39.1%

Q: And the viability, T/C (second compound 0.00949 µM, first compound 0.3 µM)?
A: 30.8%

Q: And the viability, T/C (second compound 0.03 µM, first compound 0.000949 µM)?
A: 93.7%

Q: And the viability, T/C (second compound 0.03 µM, first compound 0.003 µM)?
A: 83.6%

Q: What about the viability, T/C (second compound 0.03 µM, first compound 0.00949 µM) of the same compound?
A: 59.1%

Q: And the viability, T/C (second compound 0.03 µM, first compound 0.03 µM)?
A: 52.7%

Q: And the viability, T/C (second compound 0.03 µM, first compound 0.0949 µM)?
A: 41.9%

Q: What about the viability, T/C (second compound 0.03 µM, first compound 0.3 µM) of the same compound?
A: 29.7%

Q: And the viability, T/C (second compound 0.0949 µM, first compound 0.000949 µM)?
A: 88.3%

Q: What about the viability, T/C (second compound 0.0949 µM, first compound 0.003 µM) of the same compound?
A: 66.8%

Q: What about the viability, T/C (second compound 0.0949 µM, first compound 0.00949 µM) of the same compound?
A: 54.1%

Q: What about the viability, T/C (second compound 0.0949 µM, first compound 0.03 µM) of the same compound?
A: 45.4%

Q: And the viability, T/C (second compound 0.0949 µM, first compound 0.0949 µM)?
A: 39.1%

Q: What about the viability, T/C (second compound 0.0949 µM, first compound 0.3 µM) of the same compound?
A: 31.5%

Q: What about the viability, T/C (second compound 0.3 µM, first compound 0.000949 µM) of the same compound?
A: 71.1%

Q: And the viability, T/C (second compound 0.3 µM, first compound 0.003 µM)?
A: 66.5%

Q: What about the viability, T/C (second compound 0.3 µM, first compound 0.00949 µM) of the same compound?
A: 52.8%

Q: What about the viability, T/C (second compound 0.3 µM, first compound 0.03 µM) of the same compound?
A: 42.9%

Q: What about the viability, T/C (second compound 0.3 µM, first compound 0.0949 µM) of the same compound?
A: 42.8%

Q: What about the viability, T/C (second compound 0.3 µM, first compound 0.3 µM) of the same compound?
A: 32.2%
